Data reported in patent publication US20260060250A1, “HERBICIDAL PYRIDONE DERIVATIVES” (SYNGENTA CROP PROTECTION AG, priority 2022, published 2026).

Key:
Assay type in all cases: in vivo
Conditions in all cases: evaluated after 13 days
[1] = test system: Amaranthus palmeri (AMAPA); assay: Pre-emergence Test (Table B1); design: key: 5=81-100%; 4=61-80%; 3=41-60%; 2=21-40%; 1=0-20%; 0=inactive
[2] = test system: Setaria faberi (SETFA); assay: Pre-emergence Test (Table B1); design: key: 5=81-100%; 4=61-80%; 3=41-60%; 2=21-40%; 1=0-20%; 0=inactive
[3] = test system: Echinochloa crus-galli (ECHCG); assay: Pre-emergence Test (Table B1); design: key: 5=81-100%; 4=61-80%; 3=41-60%; 2=21-40%; 1=0-20%; 0=inactive
[4] = test system: Amaranthus retroflexus (AMARE); assay: Pre-emergence Test (Table B1)
[5] = test system: Zea mays (ZEAMX); assay: Pre-emergence Test (Table B1); design: key: 5=81-100%; 4=61-80%; 3=41-60%; 2=21-40%; 1=0-20%; 0=inactive
[6] = test system: Ipomoea hederacea (IPOHE); assay: Pre-emergence Test (Table B1); design: key: 5=81-100%; 4=61-80%; 3=41-60%; 2=21-40%; 1=0-20%; 0=inactive
[7] = test system: Amaranthus palmeri (AMAPA); assay: Post-emergence Test (Table B2)
Protocol: (§1) Seeds of a variety of test species are sown in standard soil in pots (Amaranthus palmeri (AMAPA), Setaria faberi (SETFA), Echinochloa crus-galli (ECHCG), (Amaranthus retroflexus (AMARE), Zea mays (ZEAMX), Ipomoea hederacea (IPOHE)). After 8 days cultivation under controlled conditions in a glasshouse (at 24° C./16° C., day/night; 14 hours light; 65% humidity), the plants are sprayed with an aqueous spray solution derived from the formulation of the technical active ingredient in acetone/water (50:50) solution containing 0.5% Tween 20 (polyoxyethelyene sorbitan monolaurate, CAS RN 9005-64-5). Compounds are applied at 1000 g/ha unless otherwise stated. The test plants are then grown in a glasshouse under controlled conditions in a glasshouse (at 24° C./16° C., day/night; 14 hours light; 65% humidity) and watered twice daily. After 13 days the test is evaluated for the percentage damage caused to the plant.

[8] = test system: Amaranthus retroflexus (AMARE); assay: Post-emergence Test (Table B2)
Protocol: as §1

[9] = test system: Setaria faberi (SETFA); assay: Post-emergence Test (Table B2)
Protocol: as §1

[10] = test system: Echinochloa crus-galli (ECHCG); assay: Post-emergence Test (Table B2); design: key: 5=81-100%; 4=61-80%; 3=41-60%; 2=21-40%; 1=0-20%; 0=inactive
Protocol: as §1

[11] = test system: Ipomoea hederacea (IPOHE); assay: Post-emergence Test (Table B2); design: key: 5=81-100%; 4=61-80%; 3=41-60%; 2=21-40%; 1=0-20%; 0=inactive
Protocol: as §1

[12] = test system: Zea mays (ZEAMX); assay: Post-emergence Test (Table B2); design: key: 5=81-100%; 4=61-80%; 3=41-60%; 2=21-40%; 1=0-20%; 0=inactive
Protocol: as §1

[13] = lower rate of 250 g per hectare

Row | SMILES | percentage damage caused to the plant, AMAPA [1, 13] | percentage damage caused to the plant, SETFA [2, 13] | percentage damage caused to the plant, ECHCG [3, 13] | percentage damage caused to the plant, AMARE [4, 13] | percentage damage caused to the plant, ZEAMX [5, 13] | percentage damage caused to the plant, IPOHE [6, 13] | percentage damage caused to the plant, AMAPA [7, 13] | percentage damage caused to the plant, AMARE [8, 13] | percentage damage caused to the plant, SETFA [9, 13] | percentage damage caused to the plant, ECHCG [10, 13] | percentage damage caused to the plant, IPOHE [11, 13] | percentage damage caused to the plant, ZEAMX [12, 13] | percentage damage caused to the plant, AMAPA ([1]; 1000 g/ha) | percentage damage caused to the plant, SETFA ([2]; 1000 g/ha) | percentage damage caused to the plant, ECHCG ([3]; 1000 g/ha) | percentage damage caused to the plant, AMARE ([4]; 1000 g/ha) | percentage damage caused to the plant, ZEAMX ([5]; 1000 g/ha) | percentage damage caused to the plant, IPOHE ([6]; 1000 g/ha) | percentage damage caused to the plant, AMAPA ([7]; 1000 g/ha) | percentage damage caused to the plant, AMARE ([8]; 1000 g/ha) | also measured
1 | C#CCC(C)OC(=O)c1cc(-c2c(C)n(CC)c(-c3ccc(Cl)c(Cl)c3)c(C(=O)O)c2=O)c(F)cc1Cl (stereo not drawn) [Compound 43, 5-[4-chloro-2-fluoro-5-(1-methylbut-3-ynoxycarbonyl)phenyl]-2-(3,4-dichlorophenyl)-1-ethyl-6-methyl-4-oxo-pyridine-3-carboxylic acid] | 0 | 0 | 0 | 2 (2=21-40%) | 0 | 0 | 5 (5=81-100%) | 5 (5=81-100%) | 3 (3=41-60%) | 4 (4=61-80%) | 2 (2=21-40%) | 4 (4=61-80%) |  |  |  |  |  |  |  |  | 
2 | C=CCC(C)OC(=O)c1ccc(F)c(-c2c(C)n(CC)c(-c3ccc(Cl)c(Cl)c3)c(C(=O)O)c2=O)c1 (stereo not drawn) [Compound 13, 2-(3,4-dichlorophenyl)-1-ethyl-5-[2-fluoro-5-(1-methylbut-3-enoxycarbonyl)phenyl]-6-methyl-4-oxo-pyridine-3-carboxylic acid] |  |  |  |  |  |  |  |  |  |  |  |  | 4 (4=61-80%) | 2 (2=21-40%) | 1 (1=0-20%) | 4 (4=61-80%) | 0 | 0 | 4 (4=61-80%) | 4 (4=61-80%) | percentage damage caused to the plant, SETFA ([9]; 1000 g/ha): 2 (2=21-40%); percentage damage caused to the plant, ECHCG ([10]; 1000 g/ha): 1 (1=0-20%); percentage damage caused to the plant, IPOHE ([11]; 1000 g/ha): 2 (2=21-40%); percentage damage caused to the plant, ZEAMX ([12]; 1000 g/ha): 2 (2=21-40%)
3 | CCn1c(C)c(-c2cc(C(=O)OC(C)C#N)c(Cl)cc2F)c(=O)c(C(=O)O)c1-c1ccc(Cl)c(Cl)c1 (stereo not drawn) [Compound 44, 5-[4-chloro-5-(1-cyanoethoxycarbonyl)-2-fluoro-phenyl]-2-(3,4-dichlorophenyl)-1-ethyl-6-methyl-4-oxo-pyridine-3-carboxylic acid] | 5 (5=81-100%) | 0 | 0 | 5 (5=81-100%) | 0 | 2 (2=21-40%) | 5 (5=81-100%) | 5 (5=81-100%) | 3 (3=41-60%) | 3 (3=41-60%) | 4 (4=61-80%) | 2 (2=21-40%) |  |  |  |  |  |  |  |  | 
4 | CCn1c(C)c(-c2cc(C(=O)OC(C)C(C)=O)ccc2F)c(=O)c(C(=O)O)c1-c1ccc(Cl)c(Cl)c1 (stereo not drawn) [Compound 10, 2-(3,4-dichlorophenyl)-1-ethyl-5-[2-fluoro-5-(1-methyl-2-oxo-propoxy)carbonyl-phenyl]-6-methyl-4-oxo-pyridine-3-carboxylic acid] |  |  |  |  |  |  |  |  |  |  |  |  | 5 (5=81-100%) | 0 | 0 | 5 (5=81-100%) | 0 | 0 | 5 (5=81-100%) | 5 (5=81-100%) | percentage damage caused to the plant, SETFA ([9]; 1000 g/ha): 4 (4=61-80%); percentage damage caused to the plant, ECHCG ([10]; 1000 g/ha): 2 (2=21-40%); percentage damage caused to the plant, IPOHE ([11]; 1000 g/ha): 1 (1=0-20%); percentage damage caused to the plant, ZEAMX ([12]; 1000 g/ha): 3 (3=41-60%)
5 | CCn1c(C)c(-c2cc(C(=O)OC(C)C#N)ccc2F)c(=O)c(C(=O)O)c1-c1ccc(Cl)c(Cl)c1 (stereo not drawn) [Compound 41, 5-[5-(1-cyanoethoxycarbonyl)-2-fluoro-phenyl]-2-(3,4-dichlorophenyl)-1-ethyl-6-methyl-4-oxo-pyridine-3-carboxylic acid] |  |  |  |  |  |  | 2 (2=21-40%) | 2 (2=21-40%) | 2 (2=21-40%) | 0 | 1 (1=0-20%) | 0 |  |  |  |  |  |  |  |  | 
